The record followed here is ChEMBL document CHEMBL1770076, “(+)-Arisugacin A--computational evidence of a dual binding site covalent inhibitor of acetylcholinesterase” (Bioorg Med Chem Lett, 2011).

Test [1] has as its target Cholinesterase (Homo sapiens, UniProt P06276).
The target in test [2] is Acetylcholinesterase (Homo sapiens, UniProt P22303).
Description: Inhibition of AChE-induced amyloid beta aggregation

Structures are written as SMILES.

Cholinesterase, sequence (P06276 whole entry): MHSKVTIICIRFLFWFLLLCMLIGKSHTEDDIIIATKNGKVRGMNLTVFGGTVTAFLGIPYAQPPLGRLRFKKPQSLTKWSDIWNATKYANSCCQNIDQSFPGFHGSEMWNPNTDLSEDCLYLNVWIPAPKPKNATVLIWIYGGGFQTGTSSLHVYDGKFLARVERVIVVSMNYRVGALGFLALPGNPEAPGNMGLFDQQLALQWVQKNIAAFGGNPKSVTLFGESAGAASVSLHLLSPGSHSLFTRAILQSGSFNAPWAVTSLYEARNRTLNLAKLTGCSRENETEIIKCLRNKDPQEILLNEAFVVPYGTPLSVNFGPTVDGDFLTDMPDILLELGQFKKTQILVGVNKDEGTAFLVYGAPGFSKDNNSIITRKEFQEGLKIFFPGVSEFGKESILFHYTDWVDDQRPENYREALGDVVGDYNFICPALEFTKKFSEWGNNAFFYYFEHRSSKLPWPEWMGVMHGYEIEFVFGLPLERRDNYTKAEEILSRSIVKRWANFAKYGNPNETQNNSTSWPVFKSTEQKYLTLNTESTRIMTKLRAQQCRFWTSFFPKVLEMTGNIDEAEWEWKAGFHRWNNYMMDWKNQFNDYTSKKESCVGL
Acetylcholinesterase, sequence (P22303 whole entry): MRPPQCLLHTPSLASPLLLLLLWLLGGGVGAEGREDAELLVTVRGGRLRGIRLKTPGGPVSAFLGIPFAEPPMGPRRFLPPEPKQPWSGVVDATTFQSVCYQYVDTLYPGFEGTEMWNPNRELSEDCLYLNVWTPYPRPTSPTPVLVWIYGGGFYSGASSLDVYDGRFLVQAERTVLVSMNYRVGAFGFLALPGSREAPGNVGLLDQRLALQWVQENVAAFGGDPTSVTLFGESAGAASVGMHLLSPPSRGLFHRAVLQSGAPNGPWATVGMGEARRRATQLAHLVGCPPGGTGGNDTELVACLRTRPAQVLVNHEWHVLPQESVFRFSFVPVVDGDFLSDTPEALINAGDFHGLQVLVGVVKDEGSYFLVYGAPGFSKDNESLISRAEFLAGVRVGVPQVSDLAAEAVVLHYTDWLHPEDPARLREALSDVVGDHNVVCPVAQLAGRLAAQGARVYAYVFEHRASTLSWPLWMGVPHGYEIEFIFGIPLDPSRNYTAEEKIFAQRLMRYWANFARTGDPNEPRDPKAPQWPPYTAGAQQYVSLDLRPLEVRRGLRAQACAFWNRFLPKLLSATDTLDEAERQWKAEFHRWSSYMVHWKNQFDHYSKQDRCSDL

Take `COc1ccc(-c2cc3c(c(=O)o2)C[C@]2(O)[C@@]4(C)C(=O)C=CC(C)(C)[C@]4(O)CC[C@@]2(C)O3)cc1OC`: in test [1], the IC50 is 18000 nM.

`C/C=C1\[C@H]2C=C(C)C[C@]1(N)c1ccc(=O)[nH]c1C2` [HUPERZINE A]: the half-maximal inhibitory concentration (IC50) in test [1] was 100 nM. In the case of `COc1cc(-c2cc3c(c(=O)o2)C[C@]2(O)[C@@]4(C)C(=O)C=CC(C)(C)[C@]4(O)CC[C@@]2(C)O3)cc(OC)c1OC` [TERRITREM B], in test [2], the IC50 was found to be 6 nM.

Broadly, the IC50 is the point on the concentration scale where inhibition reaches its midpoint. A high value points to weaker potency.
